Read-outs that look alike come from different tables or passages of the source.
Tests used:
Type in all cases: in vivo
[1] = tested on: ryegrass, Italian (Italian ryegrass, Lolium multiflorum); experiment: Test A preemergence; details: Lolium multiflorum, pre-emergence, 240 h; for pest or weed control at 125 g/ha: 125 g ai/ha, 0 to 100 scale where 0 is no effect and 100 is complete control; for pest or weed control at 500 g/ha: 500 g ai/ha
Method in brief: (§1)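 Ratings of 0 (no effect) to 100 (complete control) come from visual comparison with untreated controls roughly 10 d after treatment. Test chemicals, formulated in a non-phytotoxic solvent mixture with surfactant, were applied either as a preemergence directed soil spray on seeded soil or postemergence to one- to two-leaf plants 2 to 10 cm tall.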

[2] = tested on: Kochia (Kochia scoparia); experiment: Test A preemergence; details: Bassia scoparia, pre-emergence, 240 h; for pest or weed control at 125 g/ha: 125 g ai/ha, 0 to 100 scale where 0 is no effect and 100 is complete control; for pest or weed control at 500 g/ha: 500 g ai/ha
Method in brief: as §1

[3] = tested on: pigweed (Amaranthus retroflexus); experiment: Test A preemergence; details: Amaranthus retroflexus, pre-emergence, 240 h; for pest or weed control at 125 g/ha: 125 g ai/ha, 0 to 100 scale where 0 is no effect and 100 is complete control; for pest or weed control at 500 g/ha: 500 g ai/ha
[4] = tested on: barnyardgrass (Echinochloa crus-galli); experiment: Test A preemergence; details: Echinochloa crus-galli, pre-emergence, 240 h; for pest or weed control at 125 g/ha: 125 g ai/ha, 0 to 100 scale where 0 is no effect and 100 is complete control; for pest or weed control at 500 g/ha: 500 g ai/ha
Method in brief: as §1

[5] = tested on: giant foxtail (Setaria faberii); experiment: Test A preemergence; details: Setaria faberi, pre-emergence, 240 h; for pest or weed control at 125 g/ha: 125 g ai/ha, 0 to 100 scale where 0 is no effect and 100 is complete control; for pest or weed control at 500 g/ha: 500 g ai/ha
Method in brief: as §1

[6] = tested on: ragweed (common ragweed, Ambrosia elatior); experiment: Test A preemergence; details: Ambrosia artemisiifolia, pre-emergence, 240 h; for pest or weed control at 125 g/ha: 125 g ai/ha, 0 to 100 scale where 0 is no effect and 100 is complete control; for pest or weed control at 500 g/ha: 500 g ai/ha
Method in brief: as §1

[7] = tested on: ryegrass, Italian (Italian ryegrass, Lolium multiflorum); experiment: Test A postemergence; details: Lolium multiflorum, post-emergence, 240 h, 125 g ai/ha, Postemergence; visual injury after approximately 10 d; 0 to 100 scale where 0 is no effect and 100 is complete control; read-out: Plant response rating, Ryegrass, Italian
Method in brief: as §1

[8] = tested on: Kochia (Kochia scoparia); experiment: Test A postemergence; details: Bassia scoparia, post-emergence, 240 h, 125 g ai/ha, Postemergence; visual injury after approximately 10 d; 0 to 100 scale where 0 is no effect and 100 is complete control; read-out: Plant response rating, Kochia
Method in brief: as §1

[9] = tested on: blackgrass (Alopecurus myosuroides); experiment: Test A postemergence; details: Alopecurus myosuroides, post-emergence, 240 h, 125 g ai/ha, Postemergence; visual injury after approximately 10 d; 0 to 100 scale where 0 is no effect and 100 is complete control; read-out: Plant response rating, Blackgrass
Method in brief: as §1

[10] = tested on: pigweed (Amaranthus retroflexus); experiment: Test A postemergence; details: Amaranthus retroflexus, post-emergence, 240 h, 125 g ai/ha, Postemergence; visual injury after approximately 10 d; 0 to 100 scale where 0 is no effect and 100 is complete control; read-out: Plant response rating, Pigweed
Method in brief: as §1

[11] = tested on: barnyardgrass (Echinochloa crus-galli); experiment: Test A postemergence; details: Echinochloa crus-galli, post-emergence, 240 h, 125 g ai/ha, Postemergence; visual injury after approximately 10 d; 0 to 100 scale where 0 is no effect and 100 is complete control; read-out: Plant response rating, Barnyardgrass
Method in brief: as §1

[12] = tested on: giant foxtail (Setaria faberii); experiment: Test A postemergence; details: Setaria faberi, post-emergence, 240 h, 125 g ai/ha, Postemergence; visual injury after approximately 10 d; 0 to 100 scale where 0 is no effect and 100 is complete control; read-out: Plant response rating, Foxtail, Giant
Method in brief: as §1

[13] = tested on: wheat (Triticum aestivum); experiment: Test A postemergence; details: Triticum aestivum, post-emergence, 240 h, 125 g ai/ha, Postemergence; visual injury after approximately 10 d; 0 to 100 scale where 0 is no effect and 100 is complete control; read-out: Plant response rating, Wheat
Method in brief: as §1

[14] = tested on: Galium (catchweed bedstraw, Galium aparine); experiment: Test A postemergence; details: Galium, post-emergence, 240 h, 125 g ai/ha, Postemergence; visual injury after approximately 10 d; 0 to 100 scale where 0 is no effect and 100 is complete control; read-out: Plant response rating, Galium
Method in brief: as §1

[15] = tested on: corn (Zea mays); experiment: Test A postemergence; details: Zea mays, post-emergence, 240 h, 125 g ai/ha, Postemergence; visual injury after approximately 10 d; 0 to 100 scale where 0 is no effect and 100 is complete control
Method in brief: as §1

[16] = preemergence, read-out: Ryegrass, Italian plant response rating
[17] = Preemergence, visual injury vs untreated controls after approximately 10 d, read-out: Ryegrass, Italian plant response rating (0 to 100 scale where 0 is no effect and 100 is complete control)
[18] = preemergence, read-out: Kochia plant response rating
[19] = Preemergence, visual injury vs untreated controls after approximately 10 d, read-out: Kochia plant response rating (0 to 100 scale where 0 is no effect and 100 is complete control)
[20] = preemergence, read-out: Pigweed plant response rating
[21] = Preemergence, visual injury vs untreated controls after approximately 10 d, read-out: Pigweed plant response rating (0 to 100 scale where 0 is no effect and 100 is complete control)
[22] = preemergence, read-out: Barnyardgrass plant response rating
[23] = Preemergence, visual injury vs untreated controls after approximately 10 d, read-out: Barnyardgrass plant response rating (0 to 100 scale where 0 is no effect and 100 is complete control)
[24] = preemergence, read-out: Foxtail, Giant plant response rating
[25] = Preemergence, visual injury vs untreated controls after approximately 10 d, read-out: Foxtail, Giant plant response rating (0 to 100 scale where 0 is no effect and 100 is complete control)
[26] = preemergence, read-out: Ragweed plant response rating
[27] = Preemergence, visual injury vs untreated controls after approximately 10 d, read-out: Ragweed plant response rating (0 to 100 scale where 0 is no effect and 100 is complete control)

SMILES	pest or weed control at 125 g/ha [1, 16] [%]	pest or weed control at 500 g/ha [1, 17] [%]	pest or weed control at 125 g/ha [2, 18] [%]	pest or weed control at 500 g/ha [2, 19] [%]	pest or weed control at 125 g/ha [3, 20] [%]	pest or weed control at 500 g/ha [3, 21] [%]	pest or weed control at 125 g/ha [4, 22] [%]	pest or weed control at 500 g/ha [4, 23] [%]	pest or weed control at 125 g/ha [5, 24] [%]	pest or weed control at 500 g/ha [5, 25] [%]	pest or weed control at 125 g/ha [6, 26] [%]	pest or weed control at 125 g/ha [7] [%]	pest or weed control at 125 g/ha [8] [%]	pest or weed control at 125 g/ha [9] [%]	pest or weed control at 125 g/ha [10] [%]	pest or weed control at 125 g/ha [11] [%]	pest or weed control at 125 g/ha [12] [%]	plant injury at 125 g/ha [13] [%]	pest or weed control at 125 g/ha [14] [%]	Corn plant response rating (crop injury, 0 = no effect, 100 = complete kill) at 125 g/ha [15] [%]	other results
CN1CC[C@H](c2cccc(C(F)(F)F)c2)[C@@H](C(=O)Nc2ccccc2S(C)(=O)=O)C1=O [Compound 920]	0	0	0	0	0	0	70	90	80	90	0	0	0	0	0	40	20	0	0	0	pest or weed control at 500 g/ha [6, 27]: 0%
CN1CC[C@H](c2cccc(Cl)c2)[C@@H](C(=O)Nc2cccc(F)c2F)C1=O [Compound 921]	50	60	0	30	0	0	90	90	90	100	0	20	0	20	0	90	90	20	0	20	pest or weed control at 500 g/ha [6, 27]: 0%
Cc1cc([C@H]2CN(C)C(=O)[C@@H]2C(=O)Nc2ccccc2F)ccc1Cl [Compound 928]	40		80		0		90		90		0	50	40	30	20	90	90	40	50	40	pest or weed control at 500 g/ha ([1]; preemergence, visual injury rating about 10 d after treatment, 0 to 100 scale (0 no effect, 100 complete control), read-out: Ryegrass, Italian plant response rating): 70%; pest or weed control at 500 g/ha ([2]; preemergence, visual injury rating about 10 d after treatment, 0 to 100 scale (0 no effect, 100 complete control), read-out: Kochia plant response rating): 80%; pest or weed control at 500 g/ha ([3]; preemergence, visual injury rating about 10 d after treatment, 0 to 100 scale (0 no effect, 100 complete control), read-out: Pigweed plant response rating): 20%; pest or weed control at 500 g/ha ([4]; preemergence, visual injury rating about 10 d after treatment, 0 to 100 scale (0 no effect, 100 complete control), read-out: Barnyardgrass plant response rating): 90%; pest or weed control at 500 g/ha ([5]; preemergence, visual injury rating about 10 d after treatment, 0 to 100 scale (0 no effect, 100 complete control), read-out: Foxtail, Giant plant response rating): 90%; pest or weed control at 500 g/ha ([6]; preemergence, visual injury rating about 10 d after treatment, 0 to 100 scale (0 no effect, 100 complete control), read-out: Ragweed plant response rating): 0%
